# Measurements taken from patent US20250041245A1, “ENDOXIFEN FOR TREATMENT OF CANCERS” (Atossa Therapeutics, Inc., priority 2021, published 2025).
# pIC50: −log10 of the molar value. Values joined by “and” are separate entries in the source; they are usually repeats but may differ in a detail not shown here. Equal values may be shown once. “Also recorded” adds a separate entry of the source.
# Tests used:
# Format in all cases: cell-based, human
# [1] = system: patient-derived tumor organoids (PDTOs), breast cancer; assay: Endoxifen screen in patient-derived tumor organoids (PARIS Test): breast cancer; design: key to Personalization Category: Personalization categories range from High, Good, Moderate, Low, to None; Personalization categories range from High, Good, Moderate, Low, to None; Personalization categories range from High, Good, Moderate, Low, to None; Personalization categories range from High, Good, Moderate, Low, to None; Personalization categories range from High, Good, Moderate, Low, to None; key to Sensitivity Category: Sensitivity categories range from High, Good, Moderate, Low, to None; Sensitivity categories range from High, Good, Moderate, Low, to None; Sensitivity categories range from High, Good, Moderate, Low, to None; Sensitivity categories range from High, Good, Moderate, Low, to None; Sensitivity categories range from High, Good, Moderate, Low, to None; conditions: each line one patient sample
# Procedure: (§1) This example describes screening endoxifen in patient-derived tumor organoids. Endoxifen was tested as a single agent on tumor organoids derived from patients diagnosed with various cancer types using a personalized cancer treatment screening assay (PARIS© Test, SEngine Precision Medicine). The screen utilized patient-derived tumor organoids (PDTOs) along with high-throughput drug screening and machine learning-guided data analysis to quantify the efficacy of endoxifen against samples derived from individual patients diagnosed with various cancer types. PDTOs are self-organizing, three-dimensional organoid structures that recapitulate structural, functional, and genomic aspects of in vivo organs. The PDTOs were grown in culture from patient tumor biopsy samples.
# (§2) Fresh patient biopsy samples received following surgery were cleaned and purified. Immune cells (e.g., lymphocytes, blood cells), cancer-associated fibroblasts, and other non-tumor cells were removed to establish pure PDTOs for endoxifen testing. The tumor organoids were grown and expanded by supplying organ- and patient-specific growth factors and nutrients. The PDTOs were treated with increasing concentrations of endoxifen ranging from about 30 nM to about 10 μM, and the drug response was measured using a luminescence readout. A lower luminescence was indicative of a stronger drug response.
# (§3) The results were analyzed using a “SEngine Precision Medicine” (SPM) scoring system to assess the sensitivity and personalization of each tumor organoid to endoxifen. The SPM score correlates with clinical outcomes, such that a higher SPM score for a specific PDTO-drug combination predicts a more favorable clinical outcome following treatment of the corresponding patient with the tested drug.
# (§4) This example describes testing endoxifen efficacy against 17 distinct cancer types in patient-derived tumor organoids (PDTOs). Screening of PDTOs was performed as described in EXAMPLE 1. For each PDTO sample, the drug response was measured using a luminescent readout over a range of endoxifen concentrations. The drug response was evaluated based on the area under the fitted dose response curve (AUC) and the SPM scoring system. AUC values were normalized for each PDTO. Briefly, data points at each drug concentration were first normalized to a negative control, then a dose response drug curve was approximated using a four-parameter logistic model fitted to the normalized data points. The area under the curve was calculated from the normalized curve. Normalization allowed for comparison of AUC values between patient samples. The SPM scores were based on machine learning models that incorporate values for how well the drug kill patient cells (sensitivity metric), the relative drug responses of a patient to all other patients in a sample database (personalization metric), and knowledge of clinical outcomes for patients that had been evaluated with the personalized cancer screening assay (PARIS® Test, SEngine Precision Medicine).
# (§5) The SPM scoring system evaluated whether a PDTO was unresponsive or responsive to endoxifen and the degree of drug response for PDTOs that were responsive to endoxifen. […] The sensitivity category was determined from the sensitivity metric and is a measure of overall cell death of a patient's cells in response to endoxifen at six concentrations. […]
# [2] = system: patient-derived tumor organoids (PDTOs), cervical carcinoma; assay: Endoxifen screen in PDTOs: cervical carcinoma; design: key to Personalization Category: Personalization categories range from High, Good, Moderate, Low, to None; Personalization categories range from High, Good, Moderate, Low, to None; Personalization categories range from High, Good, Moderate, Low, to None; Personalization categories range from High, Good, Moderate, Low, to None; Personalization categories range from High, Good, Moderate, Low, to None; key to Sensitivity Category: Sensitivity categories range from High, Good, Moderate, Low, to None; Sensitivity categories range from High, Good, Moderate, Low, to None; Sensitivity categories range from High, Good, Moderate, Low, to None; Sensitivity categories range from High, Good, Moderate, Low, to None; Sensitivity categories range from High, Good, Moderate, Low, to None; AUC: unit not given beside the values
# Procedure: as §1, §2, §3, §4, §5
# [3] = system: patient-derived tumor organoids (PDTOs), cholangiocarcinoma; assay: Endoxifen screen in PDTOs: cholangiocarcinoma; design: key to Personalization Category: Personalization categories range from High, Good, Moderate, Low, to None; Personalization categories range from High, Good, Moderate, Low, to None; Personalization categories range from High, Good, Moderate, Low, to None; Personalization categories range from High, Good, Moderate, Low, to None; Personalization categories range from High, Good, Moderate, Low, to None; key to Sensitivity Category: Sensitivity categories range from High, Good, Moderate, Low, to None; Sensitivity categories range from High, Good, Moderate, Low, to None; Sensitivity categories range from High, Good, Moderate, Low, to None; Sensitivity categories range from High, Good, Moderate, Low, to None; Sensitivity categories range from High, Good, Moderate, Low, to None; AUC: unit not given beside the values; conditions: each line one patient sample; for pIC50: four-parameter logistic fit
# Procedure: as §1, §2, §3, §4
# The SPM scoring system evaluated whether a PDTO was unresponsive or responsive to endoxifen and the degree of drug response for PDTOs that were responsive to endoxifen. The SPM scoring system generated metrics an SPM score, predictive of clinical outcome, overall drug response (response category), drug sensitivity (sensitivity category), and drug personalization (personalization category). SPM scores ranged from 1-15, corresponding to the following drug response categories: no response (SPM 1-8), low response (SPM 9), moderate response (SPM 10-11), good response (SPM 12-13), and exceptional response (SPM 14-15). […] Moderate to good drug responses (SPM 10-13) may indicate that a drug has clinical relevance, possibly in combination with other drugs. The sensitivity category was determined from the sensitivity metric and is a measure of overall cell death of a patient's cells in response to endoxifen at six concentrations. […]
# [4] = system: patient-derived tumor organoids (PDTOs), ovarian cancer; assay: Endoxifen screen in PDTOs: ovarian cancer; design: AUC: unit not given beside the values; conditions: each line one patient sample
# Procedure: as §1
# as §2, with “The tumor organoids were grown and expanded by supplying organ- and patient-specific growth factors and nutrients.” left out
# The results were analyzed using a “SEngine Precision Medicine” (SPM) scoring system to assess the sensitivity and personalization of each tumor organoid to endoxifen. […]
# This example describes testing endoxifen efficacy against 17 distinct cancer types in patient-derived tumor organoids (PDTOs). […] For each PDTO sample, the drug response was measured using a luminescent readout over a range of endoxifen concentrations. The drug response was evaluated based on the area under the fitted dose response curve (AUC) and the SPM scoring system. […] The area under the curve was calculated from the normalized curve. […]
# The SPM scoring system evaluated whether a PDTO was unresponsive or responsive to endoxifen and the degree of drug response for PDTOs that were responsive to endoxifen. […]
# [5] = normalized area under fitted dose response curve
structure (smiles),measurement,setting,value
"CC/C(=C(\c1ccc(O)cc1)c1ccc(OCCNC)cc1)c1ccccc1 [Endoxifen, 4-hydroxy-N-desmethyltamoxifen]",Response Category,[1],Moderate (moderate response (SPM 10-11)); also recorded: None (no response (SPM 1-8)); also recorded: Low (low response (SPM 9)); also recorded: Good (good response (SPM 12-13)); also recorded: Exceptional (exceptional response (SPM 14-15))
same,AUC,[1]; [5],0.8248 and 0.9311 and 0.8639 and 0.6798 and 0.8079 and 0.9835 and 0.8609 and 0.8997 and 0.8847 and 0.9811 and 0.9320 and 0.9911 and 0.9378 and 0.4774 and 0.5912
same,Sensitivity Category,[1]; overall cell death at six concentrations,Low and None and Moderate and Good
same,Personalization Category,[1]; response relative to other PDTOs,Moderate and None and Low and High and Good
same,SPM Score,[1]; score range 1-15,10 and 1 (6×) and 9 (3×) and 13 (2×) and 11 and 4 and 14
same,pIC50,"[2]; Homo sapiens, Patient 10, four-parameter logistic fit",5.46
same,Personalization Category,[2]; Patient 10,Good
same,Sensitivity Category,[2]; Patient 10,Low
same,AUC,"[2]; Patient 10, normalized area under fitted dose response curve",0.8002
same,SPM Score,"[2]; Patient 10, score range 1-15",11
same,pIC50,[3]; Homo sapiens,5.06
same,Personalization Category,[3],None and Low
same,Response Category,[3],None (no response (SPM 1-8)); also recorded: Low (low response (SPM 9))
same,Sensitivity Category,[3],None and Low
same,pIC50,[3],5.04
same,AUC,[3]; [5],0.9497 and 0.9011 and 0.9669
same,SPM Score,[3]; score range 1-15,1 and 9 and 3
same,pIC50,[4]; four-parameter logistic fit,5.03 and 5.09 and 5.17 and 5.31 and 5.14 and 5.51 and 5.16 and 5.46 and 5.21 and 5.02 and 5.38 and 5.22 and 5.44 and 5.26 and 5.43 and 5.37 and 5.04
same,AUC,[4]; [5],0.9109 and 1.0762 and 0.8038 and 0.9291 and 0.9081 and 0.9209 and 1.0105 and 0.8454 and 0.8909 and 0.9267 and 0.9074 and 0.8343 and 0.9838 and 0.8320 and 1.0057 and 0.9637 and 1.1417 and 1.0287 and 0.8785 and 0.8853 and 0.9968 and 0.9220 and 0.8174 and 0.9760 and 0.8739 and 0.8607 and 1.0172 and 0.9895 and 0.9934
same,SPM Score,[4]; score range 1-15,1 (15×) and 11 (2×) and 5 (3×) and 9 (6×) and 10 (2×) and 4
